From patent publication US7074598B2, “Detection of vancomycin-resistant enterococcus spp” (Mayo Foundation for Medical Education and Research, priority 2002, dated 2006)

Legend:
Enterococcus = experiment: culture and susceptibility results of anal swab specimens (VRE screen media); assay type: cell-based
Protocol: An additional 56 specimens obtained from anal swabs were analyzed using the LIGHTCYCLER™ assay and were compared to a culture method using a VRE screen media. The anal swabs were prepared for amplification as described above. The LIGHTCYCLER™ assay detected more positive specimens than did culture, and is therefore more sensitive than culture. A high rate of false negative results from rectal swab culture has been previously confirmed in the literature (Clin. Infect. Dis., 2002, 34:167–172).

[1] = system: vanB strains of vancomycin-resistant enterococci; conditions: vanB phenotypes (vanB, vanB-2/3); cited from earlier work
[2] = system: clinical isolates of Enterococcus; experiment: agar dilution antimicrobial susceptibility testing (MIC) of clinical isolates of Enterococcus; assay type: cell-based
Protocol: One hundred clinical isolates of Enterococcus (E. casseliflavus/flavescens [n=10], E. faecalis [n=34], E. faecium [n=43], E. avium [n=1], E. gallinarum [n=11], and E. raffinosus [n=1]) were grown on blood agar plates and evaluated for the presence of vanA, vanB, and vanB 2/3 genes using a rapid LIGHTCYCLER™ vancomycin-resistant enteroccoci assay. The LIGHTCYCLER™ vancomycin-resistant enteroccoci assay differentiates the three van genes based on the temperature range over which hybridization probes melt from the target DNA (e.g., as determined by a melting curve). […] The MIC values for all of the other isolates were susceptible to vancomycin at ≦8 μg/ml.

[3] = system: vanC phenotype of vancomycin-resistant enterococci; conditions: cited from earlier work
[4] = system: vanA strains of vancomycin-resistant enterococci; conditions: cited from earlier work; for glycopeptide resistance phenotype: vanA phenotype
[5] = system: Enterococcus isolates from anal swabs; experiment: MIC of isolates cultured from anal swabs of hospitalized patients; assay type: cell-based
Protocol: Four hundred ninety seven anal swabs collected from hospitalized patients were evaluated for the presence of vanA, vanB and vanB-2/3 genes by the LIGHTCYCLER™ vancomycin-resistant enterococci assay and by conventional culture methods. 482 of the 497 specimens were negative for the van genes and 12 were positive (9 vanA; 0 vanB; 3 vanB-2/3) by the LIGHTCYCLER™ vancomycin-resistant enterococci assay and the conventional culture screen using an 8 μg/ml Enterococcosel plate. […] The MIC values for all of the other isolates were susceptible to vancomycin at ≦8 μg/ml. An additional 21 specimens (4 vanA; 5 vanB; 12 vanB-2/3) were positive by the LIGHTCYCLER™ vancomycin-resistant enterococci assay but were negative by culture. Three of these patient specimens were culture positive with a repeat swab collection. Six of the positive specimens were separate specimens from the same patients. Due to the large number of vanB genotypes missed by culture and picked up with the LIGHTCYCLER™ vancomycin-resistant enterococci assay, the concentration of vancomycin in the Enterococcesel plates was decreased to 6 μg/ml, which is the usual laboratory standard (Manual of Clinical Microbiology, 7th Ed., 1999).

[6] = Enterococcus cultured from anal swab specimen #52 (LightCycler VanA)
[7] = Enterococcus cultured from anal swab specimen #235 (LightCycler VanA)
[8] = Enterococcus cultured from anal swab specimen #244 (LightCycler VanA)
[9] = Enterococcus cultured from anal swab specimen #279 (LightCycler VanB-2/3)
[10] = Enterococcus cultured from anal swab specimen #286 (LightCycler VanB-2/3 weak)
[11] = Enterococcus cultured from anal swab specimen #296 (LightCycler Negative)
[12] = Enterococcus cultured from anal swab specimen #304 (LightCycler Negative)
[13] = Enterococcus cultured from anal swab specimen #419 (LightCycler VanA)
[14] = Enterococcus cultured from anal swab specimen #425 (LightCycler Negative)

| Compound | Susceptibility Results (Enterococcus; [6]) | Susceptibility Results (Enterococcus; [7]) | Susceptibility Results (Enterococcus; [8]) | Susceptibility Results (Enterococcus; [9]) | Susceptibility Results (Enterococcus; [10]) | Susceptibility Results (Enterococcus; [11]) | Susceptibility Results (Enterococcus; [12]) | Susceptibility Results (Enterococcus; [13]) | Susceptibility Results (Enterococcus; [14]) | glycopeptide resistance phenotype [1] | MIC ([2]; all of the other isolates (van gene negative), susceptible) [µg/mL] | MIC ([2]; vanA, vanB, and vanB-2/3 positive isolates (43 of 100 clinical isolates), all resistant) [µg/mL] | glycopeptide resistance phenotype [3] | glycopeptide resistance phenotype [4] | minimum inhibitory concentration (MIC) ([4]; vanA strains, typical level) [µg/mL] | MIC ([5]; all of the other isolates from anal swabs, susceptible) [µg/mL] | MIC ([5]; vanA and vanB positive isolates from anal swabs, all resistant) [µg/mL] |
| --- | --- | --- | --- | --- | --- | --- | --- | --- | --- | --- | --- | --- | --- | --- | --- | --- | --- |
| CC1(C)S[C@@H]2[C@H](NC(=O)[C@H](N)c3ccccc3)C(=O)N2[C@H]1C(=O)O [Amp, Ampicillan] | S | Amp, Van, Pen, Gent = R | R | R | Amp, Van, Pen, Gent = S | Amp, Van, Pen, Gent = S | S | R | S | – | – | – | – | – | – | – | – |
| CN[C@H](CC(C)C)C(=O)N[C@H]1C(=O)N[C@@H](CC(N)=O)C(=O)N[C@H]2C(=O)N[C@H]3C(=O)N[C@H](C(=O)N[C@H](C(=O)O)c4cc(O)cc(O)c4-c4cc3ccc4O)[C@H](O)c3ccc(c(Cl)c3)Oc3cc2cc(c3O[C@@H]2O[C@H](CO)[C@@H](O)[C@H](O)[C@H]2O[C@H]2C[C@](C)(N)[C@H](O)[C@H](C)O2)Oc2ccc(cc2Cl)[C@H]1O [vancomycin] | I | Amp, Van, Pen, Gent = R | R | S | Amp, Van, Pen, Gent = S | Amp, Van, Pen, Gent = S | I | R | I | variable vancomycin-resistance | ≤ 8 | ≥ 64 | low levels of vancomycin-resistance | high levels of resistance | > 64 | ≤ 8 | ≥ 64 |
| Pennicillin | S | Amp, Van, Pen, Gent = R | R | R | Amp, Van, Pen, Gent = S | Amp, Van, Pen, Gent = S | S | R | S | – | – | – | – | – | – | – | – |
| teicoplanin | – | – | – | – | – | – | – | – | – | susceptible | – | – | susceptible | high levels of resistance | – | – | – |
| Gentamycin | S | Amp, Van, Pen, Gent = R | S | S | Amp, Van, Pen, Gent = S | Amp, Van, Pen, Gent = S | S | I | S | – | – | – | – | – | – | – | – |
